Reference: US10597388B2, “Pyridazinone herbicides” (FMC CORPORATION, priority 2014, dated 2020)

Experiments:
Type in all cases: in vivo
[1] = system: lambsquarters (Chenopodium album); test: Test C greenhouse herbicide test, pre- and postemergence
Outline: (§1)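 Percent-control ratings (0 none, 100 complete) came from visual comparison with controls held alongside in the greenhouse for 13–15 d. Treatments covered soil application at sowing and foliar application to young plants 2–18 cm tall.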

[2] = system: barnyardgrass (Echinochloa crus-galli); test: as above
Outline: as §1

[3] = system: morningglory (Ipomoea coccinea); test: as above
Outline: as §1

[4] = system: oilseed rape (Brassica napus); test: as above
Outline: as §1

[5] = system: velvetleaf (Abutilon theophrasti); test: as above
Outline: as §1

[6] = system: wheat (winter wheat, Triticum aestivum); test: as above
Outline: as §1

[7] = system: crabgrass, large (large crabgrass, Digitaria sanguinalis); test: as above
Outline: as §1

[8] = system: pigweed (Amaranthus retroflexus); test: as above
Outline: as §1

[9] = system: blackgrass (Alopecurus myosuroides); test: as above
Outline: as §1

[10] = system: johnsongrass (Sorghum halepense); test: as above
Outline: as §1

[11] = system: foxtail, giant (giant foxtail, Setaria faberii); test: as above
Outline: as §1

[12] = system: corn (Zea mays); test: as above
Outline: as §1

[13] = system: waterhemp (common waterhemp, Amaranthus rudis); test: as above
Outline: as §1

[14] = system: nutsedge, yellow (yellow nutsedge, Cyperus esculentus); test: as above
Outline: as §1

[15] = system: oat, wild (wild oat, Avena fatua); test: Test C greenhouse herbicide test, postemergence
Outline: (§2)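 Plants grown in potting mix of peat moss, vermiculite, wetting agent and starter nutrients were sprayed postemergence at 2 to 18 cm height (1- to 4-leaf stage). After 13 to 15 d in the greenhouse, injury was visually rated against untreated controls on a 0–100 scale (0 no effect, 100 complete control).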

[16] = system: kochia (Kochia scoparia); test: Test C greenhouse herbicide test, postemergence
Outline: as §2

[17] = Postemergence, 31 g ai/ha, 0 to 100 scale (0 no effect, 100 complete control)
[18] = Postemergence, 125 g ai/ha, scale 0 to 100, 0 is no effect, 100 is complete control
[19] = Postemergence, 250 g ai/ha, scale 0 to 100, 0 no effect, 100 complete control, 13 to 15 d
[20] = Preemergence, 31 g ai/ha, scale 0 to 100, 0 is no effect, 100 is complete control
[21] = Preemergence, 62 g ai/ha, scale 0 to 100, 0 is no effect, 100 is complete control
[22] = Preemergence, 125 g ai/ha, scale 0 to 100, 0 is no effect, 100 is complete control
[23] = Preemergence, 250 g ai/ha, scale 0 to 100 (0 no effect, 100 complete control)
[24] = postemergence, 62 g ai/ha, scale 0 to 100, 0 no effect, 100 complete control

CCOC(=O)Oc1c(C)nn(C)c(=O)c1-c1c(C)ccc2ccccc12 [Compound 73]
Lambsquarters plant response rating [1, 17]: 90
Plant response rating, Lambsquarters [1, 18]: 95
Plant response rating, Lambsquarters [1, 19]: 98
Plant response rating, Lambsquarters [1, 20]: 75
Plant response rating, Lambsquarters [1, 21]: 70
Plant response rating, Lambsquarters [1, 22]: 80
Lambsquarters plant response rating [1, 23]: 90
Lambsquarters plant response rating [1, 24]: 95
Barnyardgrass plant response rating [2, 17]: 25
Plant response rating, Barnyardgrass [2, 18]: 55
Plant response rating, Barnyardgrass [2, 19]: 60
Plant response rating, Barnyardgrass [2, 20]: 10
Plant response rating, Barnyardgrass [2, 21]: 25
Plant response rating, Barnyardgrass [2, 22]: 70
Barnyardgrass plant response rating [2, 23]: 85
Barnyardgrass plant response rating [2, 24]: 40
Morningglory plant response rating [3, 17]: 75
Plant response rating, Morningglory [3, 18]: 95
Plant response rating, Morningglory [3, 19]: 95
Plant response rating, Morningglory [3, 20]: 85
Plant response rating, Morningglory [3, 21]: 90
Plant response rating, Morningglory [3, 22]: 90
Morningglory plant response rating [3, 23]: 95
Morningglory plant response rating [3, 24]: 90
Oilseed Rape plant response rating [4, 17]: 10
Plant response rating, Oilseed Rape [4, 18]: 70
Plant response rating, Oilseed Rape [4, 19]: 85
Plant response rating, Oilseed Rape [4, 20]: 90
Plant response rating, Oilseed Rape [4, 21]: 85
Plant response rating, Oilseed Rape [4, 22]: 90
Oilseed Rape plant response rating [4, 23]: 85
Oilseed Rape plant response rating [4, 24]: 70
Velvetleaf plant response rating [5, 17]: 40
Plant response rating, Velvetleaf [5, 18]: 85
Plant response rating, Velvetleaf [5, 19]: 90
Plant response rating, Velvetleaf [5, 20]: 25
Plant response rating, Velvetleaf [5, 21]: 80
Plant response rating, Velvetleaf [5, 22]: 85
Velvetleaf plant response rating [5, 23]: 85
Velvetleaf plant response rating [5, 24]: 85
Wheat plant response rating [6, 17]: 10
Plant response rating, Wheat [6, 18]: 35
Plant response rating, Wheat [6, 19]: 40
Plant response rating, Wheat [6, 20]: 0
Plant response rating, Wheat [6, 21]: 20
Plant response rating, Wheat [6, 22]: 35
Wheat plant response rating [6, 23]: 60
Wheat plant response rating [6, 24]: 30
Crabgrass, Large plant response rating [7, 17]: 30
Plant response rating, Crabgrass, Large [7, 18]: 60
Plant response rating, Crabgrass, Large [7, 19]: 75
Plant response rating, Crabgrass, Large [7, 20]: 0
Plant response rating, Crabgrass, Large [7, 21]: 30
Plant response rating, Crabgrass, Large [7, 22]: 75
Crabgrass, Large plant response rating [7, 23]: 75
Crabgrass, Large plant response rating [7, 24]: 35
Pigweed plant response rating [8, 17]: 80
Plant response rating, Pigweed [8, 18]: 95
Plant response rating, Pigweed [8, 19]: 98
Plant response rating, Pigweed [8, 20]: 95
Plant response rating, Pigweed [8, 21]: 100
Plant response rating, Pigweed [8, 22]: 100
Pigweed plant response rating [8, 23]: 98
Pigweed plant response rating [8, 24]: 85
Blackgrass plant response rating [9, 17]: 40
Plant response rating, Blackgrass [9, 18]: 90
Plant response rating, Blackgrass [9, 19]: 90
Plant response rating, Blackgrass [9, 20]: 50
Plant response rating, Blackgrass [9, 21]: 80
Plant response rating, Blackgrass [9, 22]: 85
Blackgrass plant response rating [9, 23]: 90
Blackgrass plant response rating [9, 24]: 85
Johnsongrass plant response rating [10, 17]: 5
Plant response rating, Johnsongrass [10, 18]: 40
Plant response rating, Johnsongrass [10, 19]: 50
Plant response rating, Johnsongrass [10, 20]: 0
Plant response rating, Johnsongrass [10, 21]: 10
Plant response rating, Johnsongrass [10, 22]: 35
Johnsongrass plant response rating [10, 23]: 55
Johnsongrass plant response rating [10, 24]: 5
Foxtail, Giant plant response rating [11, 17]: 40
Plant response rating, Foxtail, Giant [11, 18]: 75
Plant response rating, Foxtail, Giant [11, 19]: 85
Plant response rating, Foxtail, Giant [11, 20]: 55
Plant response rating, Foxtail, Giant [11, 21]: 70
Plant response rating, Foxtail, Giant [11, 22]: 85
Foxtail, Giant plant response rating [11, 23]: 95
Foxtail, Giant plant response rating [11, 24]: 65
Corn plant response rating [12, 17]: 5
Plant response rating, Corn [12, 18]: 20
Plant response rating, Corn [12, 19]: 60
Plant response rating, Corn [12, 20]: 0
Plant response rating, Corn [12, 21]: 0
Plant response rating, Corn [12, 22]: 5
Corn plant response rating [12, 23]: 25
Corn plant response rating [12, 24]: 20
Waterhemp plant response rating [13, 17]: 75
Plant response rating, Waterhemp [13, 18]: 85
Plant response rating, Waterhemp [13, 19]: 100
Plant response rating, Waterhemp [13, 20]: 85
Plant response rating, Waterhemp [13, 21]: 90
Plant response rating, Waterhemp [13, 22]: 90
Waterhemp plant response rating [13, 23]: 95
Waterhemp plant response rating [13, 24]: 75
Nutsedge, Yellow plant response rating [14, 17]: 80
Plant response rating, Nutsedge, Yellow [14, 18]: 80
Plant response rating, Nutsedge, Yellow [14, 19]: 90
Plant response rating, Nutsedge, Yellow [14, 20]: 0
Plant response rating, Nutsedge, Yellow [14, 21]: 35
Plant response rating, Nutsedge, Yellow [14, 22]: 50
Nutsedge, Yellow plant response rating [14, 23]: 95
Nutsedge, Yellow plant response rating [14, 24]: 80
Oat, Wild plant response rating [15, 17]: 75
Plant response rating, Oat, Wild [15, 18]: 95
Plant response rating, Oat, Wild [15, 19]: 95
Oat, Wild plant response rating [15, 24]: 90
Kochia plant response rating [16, 17]: 90
Plant response rating, Kochia [16, 18]: 90
Plant response rating, Kochia [16, 19]: 100
Kochia plant response rating [16, 24]: 90
